From patent US20090105189A1, “METHODS AND COMPOSITIONS FOR AMELIORATING OR INHIBITING DECLINE IN MEMORY OR INTELLIGENCE OR IMPROVING SAME” (priority 2006, published 2009)

Legend:
Type in all cases: cell-based
PC 12 cells = assay: Intracellular CDP-choline levels in PC12 cells treated with uridine; details: uridine treatment, after 50 minutes
Experimental: (§1) Brain tissue or cells was dissolved in methanol/chloroform (1:2 vol/vol), centrifuged, and the aqueous phase was dried under vacuum, resuspended in 100-200 μL water and separated by HPLC on an ion-exchange column (Alltech Hypersil APS-2, 5 μM, 250×4.6 mm). CDP-choline was eluted with a linear gradient of NaH2PO4 buffers A (1.75 mM NaH2PO4, pH 2.9) and B (500 mM, pH 4.5), which allowed resolution of CDP-choline from closely co-eluting substances such as UMP over 40 min. The retention time for CDP-choline was 9.5 min. Individual nucleotide peaks were detected by UV absorption at […], and were identified by comparison with the positions of authentic standards, as well as by the addition of nucleotide standards to selected samples.

[1] = system: P2Y2, P2Y4 and P2Y6 receptors; assay: P2Y receptor expression in NGF-differentiated PC12 cells; details: vs NGF alone
Experimental: Western blots utilized rabbit anti-P2Y2, anti-P2Y4 (both from Calbiochem); or rabbit anti-P2Y6 (Novus Biologicals, Littleton, Colo.). PC12 cells were treated as described above, except they were grown on 12 mm glass cover slips ([…] & Co., Vernon Hills, Ill.) coated with collagen. Proteins were visualized using immunofluorescence. […] For P2Y2 and P2Y4 visualization, control cultures were incubated with primary antibody plus a control antigen in order to ensure that the immuno-staining would be specific. Control antigen was not available for the P2Y6 receptor. Cells were then incubated in fluorochrome-conjugated secondary antibodies for 1 hour (goat anti-rabbit ALEXA 488 and goat anti-mouse ALEXA 568; Molecular Probes, Eugene, Oreg.) and mounted on glass slides with mounting media with or without DAPI (Vector Laboratories, Burlingame, Calif.). Control antigens provided with the primary antibodies were used to ensure that immuno-staining was specific. […] To determine whether these receptors participate in the mechanism by which extracellular UTP affects neurite outgrowth, it was first determined whether the receptors are expressed in PC 12 cells, and whether exposure to NGF alters their expression, PC 12 cells were treated for 0-7 days with NGF and levels of the receptors measured. […]

[2] = system: PLC/DAG/IP3 signaling pathway; assay: PI turnover (inositol phosphate formation) in NGF-differentiated PC12 cells; details: for Formation of IP (PI turnover): 1 hour
Experimental: Analysis of PI turnover was performed as described by ([…] et al, J Neurochem 69: 704-12, 1997). Briefly, cells were labeled metabolically for 36 h with 1.25 microCurie (μCi)/dish of myo-[2-^3H]inositol (17-0 Curie/mmol; Amersham Biosciences) in serum-free MEM, washed twice with Hank's balanced salt solution (HBSS), and treated for 15 min with 10 mM lithium chloride in HBSS. Drugs were added in the presence of 10 mM lithium for 60 min at 37° C. Cells were lysed with ice-cold methanol, and lipids were removed by extraction with chloroform/methanol/water (2:2:1 by volume). Labeled water-soluble inositol phosphates were separated from free [^3H]inositol by ion-exchange chromatography, using AG 1-X8 columns (Bio-Rad), and 1M ammonium formate and 0.1M formic acid as eluent. Radioactivity was quantified by liquid scintillation spectrometry. P2Y2, P2Y4 and P2Y6 receptors activate the phospholipase C/diacylglycerol/inositol triphosphate (PLC/DAG/IP3) signaling pathway. […] These findings indicate that UTP promotes neurite outgrowth via P2Y receptors-mediated stimulation of the IP signaling pathway.

PC12 cells [3] = assay: NGF-induced neurite outgrowth in PC12 cells; details: for Number of neurites per cell: PC12, with NGF
Experimental: PC12 cells were maintained in Minimal Essential Medium (MEM; Invitrogen, Carlsbad, Calif.) supplemented with 10% fetal bovine serum (FBS) at 37° C. Experimental incubations were for 2 or 4 days in medium containing 50 ng/ml mouse 2.5 S (2.5 subunit) NGF and 1% FBS, with or without test compounds. NGF and FBS were obtained from Invitrogen.
(§2) PC12 cells were sparsely plated on collagen-coated 60 mm culture dishes in MEM containing 1% fetal bovine serum. […] All treatments were performed 24 h after plating. At the end of the treatment period, images were obtained with a phase-contrast Zeiss Axioplan 2 microscope, using OpenLab software. Six digital images were captured for each dish, for a total of 18 to 24 images per treatment group. Approximately 300 cells were quantified for each treatment group for each experiment. Experiments were performed in triplicate. Quantification of neurites, including neurite branching and neurite length, was performed by one more researchers blinded to experimental groups. Neurite length was measured using the public domain NIH software “Image J.” Processes longer than the diameter of the cell body were counted as neurites. Only process-bearing cells were analyzed.

PC12 cells [4] = assay: Intracellular UTP and CTP levels in PC12 cells by HPLC; details: PC12, 2 days with NGF, vs NGF only
Experimental: as §1
Levels of intracellular UTP and CTP were analyzed by HPLC as described for Example 5, except that 5 mM NaH2PO4, pH 2.65 was used as buffer A.

PC12 cells [5] = assay: Uptake of uridine into PC12 cells; details: P2Y receptor antagonists
P2Y receptors = assay: P2Y receptor antagonism of uridine-enhanced NGF-stimulated neurite outgrowth in PC12 cells; details: PC12, 4 days, uridine 100 μM
Experimental: as §2

O=c1ccn([C@@H]2O[C@H](CO)[C@@H](O)[C@H]2O)c(=O)[nH]1 [uridine]
Intracellular CDP-choline levels (PC 12 cells): statistically significant increase
Expression of P2Y2, P2Y4 and P2Y6 receptors [1]: did not affect the expression of the receptors
Formation of IP (PI turnover) ([2]; NGF-differentiated PC12, 50 μM): significantly increased
Average neurite length (PC12 cells [3]; NGF-differentiated PC12 cells): did not significantly affect
Number of neurite branch points per cell (PC12 cells [3]; PC12, NGF, 50 μM, 4 days, vs NGF only): significantly (p<0.01) increased
Production of neurites (PC12 cells [3]; PC12, absence of NGF, 50 μM, 2 or 4 days): did not result in the production of neurites
Number of neurites per cell (PC12 cells [3]; 2-day treatment or lower concentrations (10, 25 μM)): had no effect
Number of neurites per cell (PC12 cells [3]; 50-200 μM, 4 days): significantly (p<0.01 or 0.001) enhanced
Intracellular CTP levels (PC12 cells [4]; 50 μM): significantly (p<0.05) increased
Intracellular UTP levels (PC12 cells [4]; 50 μM): significantly (p<0.05) increased

Cc1ccc(C(=O)Nc2ccc(S(=O)(=O)O)c3cc(S(=O)(=O)O)cc(S(=O)(=O)O)c23)cc1NC(=O)c1cccc(NC(=O)Nc2cccc(C(=O)Nc3cc(C(=O)Nc4ccc(S(=O)(=O)O)c5cc(S(=O)(=O)O)cc(S(=O)(=O)O)c45)ccc3C)c2)c1 [suramin]
Inhibition of uptake of uridine into PC12 cells (PC12 cells [5]): None of the P2Y receptor antagonists inhibited
Block of uridine enhancement of NGF-stimulated neurite outgrowth (P2Y receptors; antagonist 30 μM): significantly (p<0.05 or 0.001) blocked

O=c1ccn([C@@H]2O[C@H](COP(=O)(O)OP(=O)(O)OP(=O)(O)O)[C@@H](O)[C@H]2O)c(=O)[nH]1 [UTP, uridine-5′-triphosphate]
Formation of IP (PI turnover) ([2]; NGF-differentiated PC12, 100 μM): significantly increased
Neurite outgrowth (neurites per cell) (PC12 cells [3]; PC12, NGF, 10 and 50 μM, 4 days, vs NGF only): significantly (p<0.01) enhanced
Intracellular CTP levels (PC12 cells [4]; 100 μM): did not significantly affect
Intracellular UTP levels (PC12 cells [4]; 100 μM): did not significantly affect

Nc1ccn([C@@H]2O[C@H](CO)[C@@H](O)[C@H]2O)c(=O)n1 [cytidine]
Neurite outgrowth (PC12 cells [3]; NGF-exposed PC12 cells, cytidine treatment): had no effect on neurite outgrowth
Intracellular CTP levels (PC12 cells [4]; 50 μM): did not significantly affect
Intracellular UTP levels (PC12 cells [4]; 50 μM): did not significantly affect

Cc1nc(N=Nc2ccc(S(=O)(=O)O)cc2S(=O)(=O)O)c(COP(=O)(O)O)c(C=O)c1O [PPADS, pyridoxal-phosphate-6-azophenyl-2′,4′ disulfonic acid]
Inhibition of uptake of uridine into PC12 cells (PC12 cells [5]): None of the P2Y receptor antagonists inhibited
Block of uridine enhancement of NGF-stimulated neurite outgrowth (P2Y receptors; antagonist 30 μM): significantly (p<0.05 or 0.001) blocked
Block of UTP-stimulated IP signaling ([2]; NGF-differentiated PC12, antagonist 100 μM): significantly (p<0.05) blocked

Nc1c(S(=O)(=O)O)cc(Nc2ccc(Nc3nc(Cl)nc(Nc4cccc(S(=O)(=O)O)c4)n3)c(S(=O)(=O)O)c2)c2c1C(=O)c1ccccc1C2=O [RB-2, reactive blue 2]
Inhibition of uptake of uridine into PC12 cells (PC12 cells [5]): None of the P2Y receptor antagonists inhibited
Block of uridine enhancement of NGF-stimulated neurite outgrowth (P2Y receptors; antagonist 10 μM): significantly (p<0.05 or 0.001) blocked
